Like-named read-outs stand apart in the source and are kept apart here.
Assays:
C57BL/6 mice [1] = system: C57BL/6 mice
Procedure: In one set of experiments, compositions were tested in male C57BL/6 jugular vein catheterized (JVC) mice, 5-6 weeks old (Taconic), by infusing the animals with the liquid sulfide liquid compositions using 1 mL or 5 mL Luer-Lok syringes (Becton Dickison). An IPTT-300 transponder from Bio Medic Data Systems (BMDS) was used to monitor body temperature.
Each mouse was dosed with liquid compositions through the in-dwelling catheter using an infusion pump (Harvard Apparatus). The mouse was infused until the temperature chip implanted in the skin registered a body temperature of 33° C. […] Once the animal's temperature dropped to 33° C. or below, the infusion was stopped and the mouse was transferred into a hypoxic atmosphere (4.0% O2) together with a control mouse.

C57BL/6 mice [2] = assay type: in vivo, mouse
C. elegans [3] = test: Brood size measurement; assay type: in vivo; conditions: moved to H2S, n=5
Description: Brood size measurement. To determine the number of viable progeny produced by nematodes, individual fourth-stage larvae (L4) were transferred to NGM plates with OP50 food at room temperature. Animals were moved daily until they quit laying fertilized eggs. Progeny were counted as L4/young adult.

C. elegans [4] = test: Thermotolerance assay (survival at high temperature); assay type: in vivo
Procedure: (§1) Growing Nematodes in H2S-Containing Atmospheres. Bristol strain N2 (wild-type) and mutant nematode strains were grown at room temperature on nematode growth medium (NGM) plates seeded with live E. coli OP50 food (48). Mutant strains obtained from the C. elegans genetic stock center were as follows: CB130, daf-2(e1370); DR26, daf-16(m26); VC520, isp-1(gk267); MQ130, clk-1(qm30); DA1116, eat-2(ad1116); VC199, sir-2.1(ok434). Plates were maintained in atmospheric chambers sealed with Dow Corning Vacuum Grease (Sigma). […] Gasses were hydrated using gas wash bottles (Fisher), and moved through ⅛ inch outer diameter FEP tubing (Cole Parmer) with connections by snap connectors (Cole Parmer), stainless steel quick connect fittings or compression fittings (Seattle Fluid Systems). […] All compressed gas mixtures used in this study were obtained from Byrne Gas and were certified standard to within 2% of indicated concentration. Flow tubes (Aalborg) were used to distribute the gas mixture to different chambers. Gas flow rate was 100 cc/m to small boxes (100-300 mL) and 800 cc/m to the large boxes (1-3 L) used to culture nematode strains at room temperature. At these flow rates, the gaseous environment of the atmospheric chambers is exchanged every 20-30 minutes. […] Data were collected using Chart software with a Powerlab data acquisition unit (ADInstruments) and analyzed with EXCEL.
Thermotolerance Assay. […] Care was taken to prevent the population from starving. Nematodes were picked from these mixed-stage populations as L4 larvae and allowed to develop for 24-48 h at room temperature; however, treated and control animals were always the same age. […] Groups of 20-30 animals were transferred to NGM plates without food and then placed into an atmospheric chamber perfused with the indicated gas at high temperature in an Echotherm 1N35 incubator (Torrey Pines Scientific, NIST traceable) or a VWR incubator model 2005 (VWR International). A ring of palmitic acid around the edge of the plate helped prevent the worms escaping the surface of the agar. […]

C. elegans [5] = test: Rate of egg-laying; assay type: in vivo
Procedure: Animals were picked as L4 from mixed-stage populations and allowed to develop for 20-30 hours in the same conditions at room temperature. Individual worms were then placed onto NGM plates with a 10 μL spot of OP50 food. The number of embryos laid in 3-5 hours was counted to determine the rate of egg-laying. To create an atmosphere with 2% O2, N2 was mixed with 5% O2 balanced with N2. Smart-Trak series 100 mass flow controllers (Sierra Instruments) were used to mix the gas and to split it into 2 atmospheric chambers. […] In each experiment, 10-15 individuals were included in each group. The data shown in Table 2 are from one experiment that is representative of at least three independent assays.

C. elegans [6] = test: Lifespan in H2S-containing atmosphere; assay type: in vivo
Procedure: as §1

mice = conditions: mouse, in vivo
Procedure: Experiments were stopped at 60 minutes, and animals still alive were returned to their cage.

[7] = 4.0% O2 after infusion until body temperature 33° C., test ended at 60 minutes
[8] = jugular vein infusion until body temperature of 33° C.

CSC [dimethyl sulfide]
reduction of body (subcutaneous) temperature (C57BL/6 mice [1]; infusion, primary screen): did not reduce subcutaneous temperature

CS(=O)[O-].[Na+] [sodium methane sulfinate]
reduction of body (subcutaneous) temperature (C57BL/6 mice [1]; infusion, primary screen): did not reduce subcutaneous temperature

CC(=O)N[C@@H](CS)C(=O)O [N-acetyl-L-cysteine]
reduction of body (subcutaneous) temperature (C57BL/6 mice [1]; infusion, primary screen): did not reduce subcutaneous temperature

NCCS [cysteamine]
effective dose (C57BL/6 mice [1]; mouse, in vivo): 7.58 mmol/kg
survival in lethal hypoxia (C57BL/6 mice [2]; [7]): 45 min

O=C(O)CS [thioglycolic acid]
reduction of body (subcutaneous) temperature (C57BL/6 mice [1]; infusion, primary screen): reduced body temperature
toxicity (C57BL/6 mice [1]; mouse, in vivo): toxic

N=C(N)[SeH] [selenourea]
reduction of body (subcutaneous) temperature (C57BL/6 mice [1]; mouse, in vivo, sc): reduced body temperature
enhancement of survival in hypoxia (C57BL/6 mice [2]; lethal hypoxia 4% O2): did not enhance survival in hypoxia

OCCS [2-Mercapto-ethanol]
toxicity (C57BL/6 mice [1]; mouse, in vivo): toxic
reduction of body (subcutaneous) temperature (C57BL/6 mice [1]; mouse, in vivo, sc): reduced body temperature

CC(O)=S [Thioacetic acid]
reduction of body (subcutaneous) temperature (C57BL/6 mice [1]; mouse, in vivo, sc): reduced body temperature
enhancement of survival in hypoxia (C57BL/6 mice [2]; lethal hypoxia 4% O2): did not enhance survival in hypoxia

sodium sulfide
effective dose (C57BL/6 mice [1]; mouse, in vivo): 0.79 mmol/kg
survival in lethal hypoxia (C57BL/6 mice [2]; mouse, in vivo): 60 min

[SeH2] [sodium selenide]
reduction of body (subcutaneous) temperature (C57BL/6 mice [1]; mouse, in vivo, sc): did not reduce subcutaneous temperature

S [H2S, hydrogen sulfide]
number of progeny (C. elegans [3]): 227±18
fraction of H2S-treated animals alive when the last untreated control animal had expired (mean) (C. elegans [4]; 15 experiments, L4 to 3rd day adults, 33 to 37 C (FIG. 11A)): 0.8
average of H2S-treated animals alive when all untreated animals had died (C. elegans [4]; 15 independent experiments, high temperature): 77-80%
survival time at high temperature (C. elegans [4]; grown in H2S before heat-shock, exposed to 35 C in room air (FIG. 2C)): 7.3 h
average rate of egg-laying (C. elegans [5]; clk-1(qm30), assayed in 2% O2 + H2S): 2.5 ± 1.0 embryos per hour
average rate of egg-laying (C. elegans [5]; clk-1(qm30), assayed in H2S): 3.2 ± 1.1 embryos per hour
average rate of egg-laying (C. elegans [5]; unadapted (wild-type grown in room air), assayed in 2% O2 + H2S): 4.5 ± 1.6 embryos per hour
average rate of egg-laying (C. elegans [5]; unadapted (wild-type grown in room air), assayed in H2S): 8.3 ± 3.0 embryos per hour
delay in reaching 75% mortality versus control population (maximum lifespan) (C. elegans [6]; H2S-treated animals): 10 days
lifespan (C. elegans [6]; raised in H2S until L4, monitored in room air (FIG. 3C)): 12.8 ± 0.7 days
recovery after survival in 5% O2 (mice): no noticeable motor or behavioral deficits

SCCOCCS [2-mercaptoethyl ether]
reduction of body (subcutaneous) temperature (C57BL/6 mice [1]; infusion, primary screen): reduced body temperature
toxicity (C57BL/6 mice [1]; mouse, in vivo): toxic

N#C[S-].[Na+] [sodium thiocyanate]
effective dose (C57BL/6 mice [1]; [8]): 4.67 mmol/kg

NCCCNCCSP(=O)(O)O [phosphorothioic acid S-(2-((3-aminopropyl)amino)ethyl)ester]
reduction of body (subcutaneous) temperature (C57BL/6 mice [1]; mouse, in vivo, sc): reduced body temperature
enhancement of survival in hypoxia (C57BL/6 mice [2]; mouse, in vivo): did not enhance survival in hypoxia

C[S+](C)[O-] [Dimethylsulfoxide]
effective dose (C57BL/6 mice [1]; too high to be considered for pharmaceutical purposes): 10 % DMSO

C[S-].[Na+] [sodium thiomethoxide]
effective dose (C57BL/6 mice [1]; [8]): 4.61 mmol/kg
survival in lethal hypoxia (C57BL/6 mice [2]; [7]): 60 min

OC1CCSCC1 [tetrahydrothiopyran-4-ol]
survival in lethal hypoxia (C57BL/6 mice [2]; [7]): 15 min

Source: patent US20120135091A1, “METHODS AND COMPOSITIONS FOR ENHANCING LIFESPAN INVOLVING SIRTUIN-MODULATING COMPOUNDS AND CHALCOGENIDES” (priority 2007, published 2012)
